One data set concerns the target T1, 5-HT1A receptor (Rattus norvegicus, UniProt P19327).
T1 construct: The cerebral cortex was homogenized in 10 volumes of ice-cold Tris buffer; from tissue; host or cells: rat cerebral cortex membranes
T1 sequence (P19327 1-422): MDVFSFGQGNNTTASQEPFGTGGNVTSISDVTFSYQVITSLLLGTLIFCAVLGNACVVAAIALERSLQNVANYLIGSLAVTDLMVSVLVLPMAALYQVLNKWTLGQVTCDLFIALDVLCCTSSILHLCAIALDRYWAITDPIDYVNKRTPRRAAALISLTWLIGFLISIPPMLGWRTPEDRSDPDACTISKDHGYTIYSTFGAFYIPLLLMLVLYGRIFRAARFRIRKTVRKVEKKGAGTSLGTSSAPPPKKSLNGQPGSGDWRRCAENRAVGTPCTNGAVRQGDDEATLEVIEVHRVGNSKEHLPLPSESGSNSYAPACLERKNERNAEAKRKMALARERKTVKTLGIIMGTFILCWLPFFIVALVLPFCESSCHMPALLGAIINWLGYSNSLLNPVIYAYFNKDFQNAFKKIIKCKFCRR
Nature of the data set: Radioligand binding assay, 5-HT1A receptor ([3H]-8-OH-DPAT, rat cerebral cortex membranes). The note with it: for binding to the 5-HT1A receptor (in words): see table 1. On the procedure:
(§1) For all receptor binding assays, male Sprague-Dawley rats (Rattus norvegicus albinus), weighing 180-200 g, were killed by decapitation and the brains rapidly removed and dissected. Tissues were stored at −80° C. for subsequent use and homogenized on a Polytron PT-10 homogenizer. Membrane suspensions were centrifuged on a Beckman J2-HS instrument.
The cerebral cortex was homogenized in 10 volumes of ice-cold Tris buffer (50 mM Tris-HCl, pH 7.7 at 25° C.) and centrifuged at 28000 g for 15 min. The membrane pellet was washed twice by resuspension and centrifugation. After the second wash the resuspended pellet was incubated at 37° C. for 10 min. Membranes were then collected by centrifugation and the final pellet was resuspended in 50 mM Tris-HCl, 5 mM MgSO4, and 0.5 mM EDTA buffer (pH 7.4 at 37° C.). Fractions of 100 μL of the final membrane suspension (about 1 mg of protein) were incubated at 37° C. for 15 min with 0.6 nM [^3]-8-OH-DPAT (133 Ci/mmol), in the presence or absence of the competing drug, in a final volume of 1.1 mL of assay buffer (50 mM Tris-HCl, 10 nM clonidine, 30 nM prazosin, pH 7.4 at 37° C.). Nonspecific binding was determined with 10 μM 5-HT.
(§2) For all binding assays, competing drug, nonspecific, total and radioligand bindings were defined in triplicate. Incubation was terminated by rapid vacuum filtration through Whatman GF/B filters, presoaked in 0.05% poly(ethylenimine), using a Brandel cell harvester. The filters were then washed with the assay buffer, dried and placed in poly(ethylene) vials to which were added 4 mL of a scintillation cocktail (Aquasol). The radioactivity bound to the filters was measured by liquid scintillation spectrometry. The data were analyzed by an iterative curve-fitting procedure (program Prism, Graph Pad), which provided IC50, Ki, and r^2 values for test compounds, Ki values being calculated from the Cheng and Prusoff equation. The protein concentrations of the rat cerebral cortex and the rat striatum were determined by the method of Lowry, using bovine serum albumin as the standard.

Another data set deals with α1 adrenoceptor. Nature of the data set: Radioligand binding assay, α1 adrenoceptor ([3H]prazosin, rat cerebral cortex membranes). As to conditions: for Ki / percent value (α1): rat cerebral cortex membranes; for Ki: 0.2 nM [3H]prazosin, hydrochloride salts, read-out: Ki ± SEM (α1); for percent value (α1): [3H]prazosin, footnote to * not given; for binding to the α1 adrenoceptor (in words): see table 1. How it is done: as §1
The cerebral cortex was homogenized in 20 volumes of ice-cold buffer (50 mM Tris-HCl, 10 mM MgCl2, pH 7.4 at 25° C.) and centrifuged at 30000 g for 15 min. Pellets were washed twice by resuspension and centrifugation. Final pellets were resuspended in the same buffer. Fractions of the final membrane suspension (about 250 μg of protein) were incubated at 25° C. for 30 min with 0.2 nM [^3H]prazosin (23 Ci/mmol), in the presence or absence of six concentrations of the competing drug, in a final volume of 2 mL of buffer. Nonspecific binding was determined with 10 μM phentolamine.
as §2

The mark [1] stands for this setting: rat cerebral cortex membranes, 0.6 nM [3H]-8-OH-DPAT, hydrochloride salts, read-out: Ki ± SEM (5-HT1A).

Where a name gives a salt, the structure may show the parent alone. Read-outs that look alike come from different tables or passages of the source. Some results are limits rather than exact numbers.

For the compound `O=C1C2CCCN2C(=O)CN1CCCCN1CCN(c2cccc3ccccc23)CC1` (stereo not shown) (as salt: hydrochloride) [Compound (g), 2-[4-[4-(Naphth-1-yl)piperazin-1-yl]butyl]-1,4-dioxoperhydropyrrolo[1,2-a]pyrazine], the melting point was 277 to 280 °C (dec.).

For the compound `C[C@@H]1CN(c2cccc3ccccc23)CCN1CCCCN1CC(=O)N2CCCC2C1=O` (mixture of isomers) [(a), (2R, 8aRS)-2-[4-[4-(Naphth-1-yl)-2-methylpiperazin-1-yl]butyl]-1,4-dioxoperhydropyrrolo[1,2-a]pyrazine], the inhibition constant Ki came to 4.2 ± 0.9 nM at 5-HT1A receptor (setting [1]) and 20.1 ± 0.8 nM at α1 adrenoceptor.

Take `C[C@H]1CN(c2cccc3ccccc23)CCN1CCCCN1CC(=O)N2CCCC2C1=O` (mixture of isomers) [(b), (2S, 8aRS)-2-[4-[4-(Naphth-1-yl)-2-methylpiperazin-1-yl]butyl]-1,4-dioxoperhydropyrrolo[1,2-a]pyrazine]: the inhibition constant (Ki) at 5-HT1A receptor (setting [1]) came to 15.3 ± 1.8 nM; at α1 adrenoceptor, 34.4 ± 1.2 nM.

In the case of `C[C@@H]1CN(c2cccc(Cl)c2)CCN1CCCN1C(=O)C2CCCN2C1=O` (mixture of isomers) [(i), (2R,7aRS)-(−)-2-[3-[4-(3-Chlorophenyl)-2-methylpiperazin-1-yl]propyl]-1,3-dioxoperhydropyrrolo[1,2-c]imidazole], the Ki on 5-HT1A receptor (setting [1]) is 11.7 ± 3.4 nM. In addition, the “percent value (α1)” value in the data set with α1 adrenoceptor worked out at 76%*.

In the case of `COc1cccc(N2CCN(CCCN3C(=O)C4CCCN4C3=O)[C@@H](C)C2)c1` (mixture of isomers) [(j), (2S,7aRS)-(+)-2-[3-[4-(3-Methoxyphenyl)-2-methylpiperazin-1-yl]propyl]-1,3-dioxoperhydropyrrolo[1,2-c]imidazole], the Ki at 5-HT1A receptor (setting [1]) worked out at 21.9 ± 5.1 nM. The “percent value (α1)” value with α1 adrenoceptor came to 56%*.

With `C[C@H]1CN(c2cccc3ccoc23)CCN1CCCN1C(=O)C2CCCN2C1=O` (mixture of isomers) [(k), (2S,7aRS)-(−)-2-[3-[4-(1-Benzofuran-7-yl)-2-methylpiperazin-1-yl]propyl]-1,3-dioxoperhydropyrrolo[1,2-c]imidazole], the Ki on 5-HT1A receptor (setting [1]) was found to be 6.7 ± 0.5 nM. Also, the “percent value (α1)” value in the data set with α1 adrenoceptor amounted to 64%*.

As for `CC[C@@H]1CN(c2cccc3ccccc23)CCN1CCCCN1C(=O)C2CCCN2C1=O` (mixture of isomers) [(l), (2R,7aRS)-(−)-2-[4-[2-Ethyl-4-(naphth-1-yl)piperazin-1-yl]butyl]-1,3-dioxoperhydropyrrolo [1,2-c]imidazole], the Ki on 5-HT1A receptor (setting [1]) is 2.4 ± 0.3 nM. Besides, the “percent value (α1)” value in the data set with α1 adrenoceptor is reported as 87%*.

In the case of `C[C@@H]1CN(c2cccc3nc[nH]c23)CCN1CCCCN1C(=O)C2CCCN2C1=O` (mixture of isomers) [(m), (2R,7aRS)-(−)-2-[4-[4-(Benzimidazol-4-yl)-2-methylpiperazin-1-yl]butyl]-1,3-dioxoperhydropyrrolo[1,2-c]imidazole], the inhibition constant Ki on 5-HT1A receptor (setting [1]) is 2.3 ± 0.3 nM; at α1 adrenoceptor it was over 1000 nM.

Regarding `CC[C@@H]1CN(c2cccc(OC)c2)CCN1CCCCN1C(=O)C2CCCN2C1=O` (mixture of isomers) [(o), (2R,7aRS)-(−)-2-[4-[2-Ethyl-4-(3-methoxyphenyl)piperazin-1-yl]butyl]-1,3-dioxoperhydropyrrolo[1,2-c]imidazole], the inhibition constant (Ki) on 5-HT1A receptor (setting [1]) was 21 ± 3 nM. Also, the “percent value (α1)” value with α1 adrenoceptor is 64%*.

At 5-HT1A receptor, `Cc1ccc(N2CCN(CCCCN3C(=O)C4CCCN4C3=O)[C@@H](C)C2)c2ccccc12` (mixture of isomers) [(p), (2S,7aRS)-(+)-2-[4-[2-Methyl-4-(4-methylnaphth-1-yl)piperazin-1-yl]butyl]-1,3-dioxoperhydropyrrolo[1,2-c]imidazole] yielded an inhibition constant (Ki) of 15.3 ± 0.8 nM. Besides, in the data set with α1 adrenoceptor, the “percent value (α1)” value came out at 75%*.

Consider `C[C@H]1CN(c2ccccc2)CCN1CCCCN1C(=O)C2CCCN2C1=O` (mixture of isomers) [(q), (2S,7aRS)-(+)-2-[4-[2-Methyl-4-phenylpiperazin-1-yl]butyl]-1,3-dioxoperhydropyrrolo[1,2-c]imidazole], for which, on 5-HT1A receptor (setting [1]), the Ki turned out to be 22.1 ± 0.1 nM. Moreover, the “percent value (α1)” value in the data set on α1 adrenoceptor turned out to be 62%*.

Take `C[C@H]1CN(c2cccc3nc[nH]c23)CCN1CCCCN1C(=O)C2CCCN2C1=O` (mixture of isomers) [(r), (2S,7aRS)-(+)-2-[4-[4-(Benzimidazol-4-yl)-2-methylpiperazin-1-yl]butyl]-1,3-dioxoperhydropyrrolo[1,2-c]imidazole]: the inhibition constant Ki at 5-HT1A receptor (setting [1]) was 4.1 ± 0.3 nM; at α1 adrenoceptor it was over 1000 nM.

Regarding `C[C@H]1CN(c2ccc([N+](=O)[O-])c3ccccc23)CCN1CCCCN1C(=O)C2CCCN2C1=O` (mixture of isomers) [(s), (2S,7aRS)-(+)-2-[4-[2-Methyl-4-(4-nitronaphth-1-yl)piperazin-1-yl]butyl]-1,3-dioxoperhydropyrrolo[1,2-c]imidazole], at 5-HT1A receptor (rat cerebral cortex membranes, [3H]-8-OH-DPAT, footnote to * not given), the “percent value marked * in column Ki ± SEM (5-HT1A)” value amounted to 87%*. The “percent value (α1)” value in the data set with α1 adrenoceptor is recorded as 66%*.

For the compound `C[C@@H]1CN(c2cccc3ccccc23)CCN1CN1CC(=O)N2CCC[C@@H]2C1=O` [(c), (2R,8aR)-2-[[4-(Naphth-1-yl)-2-methylpiperazin-1-yl]methyl]-1,4-dioxoperhydropyrrolo[1,2-a]pyrazine], the results for the Ki at 5-HT1A receptor (setting [1]) and on α1 adrenoceptor were 9.5 ± 2.2 nM and over 1000 nM, respectively.

Turning to `C[C@H]1CN(c2cccc3ccccc23)CCN1CN1CC(=O)N2CCC[C@H]2C1=O` [(d), (2S,8aS)-2-[[4-(Naphth-1-yl)-2-methylpiperazin-1-yl]methyl]-1,4-dioxoperhydropyrrolo[1,2-a]pyrazine], the Ki at 5-HT1A receptor (setting [1]) was 2.5 ± 0.1 nM; at α1 adrenoceptor it was over 1000 nM.

Turning to `C[C@@H]1CN(c2cccc3ccccc23)CCN1CN1CC(=O)N2CCC[C@H]2C1=O` [(e), (2R,8aS)-2-[[4-(Naphth-1-yl)-2-methylpiperazin-1-yl]methyl]-1,4-dioxoperhydropyrrolo[1,2-a]pyrazine], the values for the inhibition constant Ki at 5-HT1A receptor (setting [1]) and on α1 adrenoceptor were 6.3 ± 0.2 nM and over 1000 nM, respectively.

As to `C[C@H]1CN(c2cccc3ccccc23)CCN1CN1CC(=O)N2CCC[C@@H]2C1=O` [(f), (2S,8aR)-2-[[4-(Naphth-1-yl)-2-methylpiperazin-1-yl]methyl]-1,4-dioxoperhydropyrrolo[1,2-a]pyrazine], the Ki at 5-HT1A receptor (setting [1]) was 6.4 ± 0.1 nM; on α1 adrenoceptor, over 1000 nM.

Take `C[C@H]1CN(c2cccc3ccoc23)CCN1CCCCN1C(=O)[C@@H]2CCCN2C1=O` [(n), (2S,7aS)-(+)-2-[4-[4-(1-Benzofuran-7-yl)-2-methylpiperazin-1-yl]butyl]-1,3-dioxoperhydropyrrolo[1,2-c]imidazole]: the inhibition constant Ki at 5-HT1A receptor (setting [1]) came to 1.6 ± 0.4 nM. For the same compound, in the data set on α1 adrenoceptor, the “percent value (α1)” value is 75%*.

`O=C1C2CCCN2C(=O)CN1CCCCN1CCN(c2cccc3ccccc23)CC1` (stereo not shown) [Compound (g), 2-[4-[4-(Naphth-1-yl)piperazin-1-yl]butyl]-1,4-dioxoperhydropyrrolo[1,2-a]pyrazine]: on 5-HT1A receptor (setting [1]), the inhibition constant (Ki) is 0.5 ± 0.2 nM. At 5-HT1A receptor, the “binding to the 5-HT1A receptor (in words)” value is listed as “picomolar range”. Moreover, on α1 adrenoceptor, the inhibition constant (Ki) is 8 ± 1.7 nM and the “binding to the α1 adrenoceptor (in words)” value is recorded as “low nanomolar range”.

With `O=C1C2CCCN2C(=O)CN1CCCCN1CCN(c2cccc3c2OCCCO3)CC1` (stereo not shown) [Compound (h), 2-[4-[4-(3,4-Dihydro-2H-1,5-benzodioxepin-6-yl)piperazin-1-yl]butyl]-1,4-dioxoperhydropyrrolo[1,2-a]pyrazine], the Ki on 5-HT1A receptor (setting [1]) stood at 3.1 ± 0.9 nM. At 5-HT1A receptor, the “binding to the 5-HT1A receptor (in words)” value is recorded as “low nanomolar range”. At α1 adrenoceptor, the Ki worked out at 348 ± 21 nM and the “binding to the α1 adrenoceptor (in words)” value is on record as “nanomolar range”.

Source of the values: patent US20090036455A1, “ARYLPIPERAZINE DERIVATIVE AND USE THEREOF AS 5-HT1A RECEPTOR LIGANDS” (CEPA SCHWARZ PHARMA, S.L., priority 2004, published 2009).
